One block for each compound: values may come before it.
Assays:
[1] = tested on: C57BL/6 mice; test: VLS evaluation: [125I]-labeled albumin accumulation in peritoneal fluid of IL-2 treated mice; format: in vivo; conditions: for Effect on IL-2 induced radio-albumin accumulation in peritoneal fluid / VLS: given with IL-2, M40403: iNOS WT or iNOS−/− mice, 1400 W: IL-2 treated mice; for [125I] labeled albumin retention in peritoneal fluid: MLA 18.5 mg/mouse/day s.c. during IL-2 treatment
Protocol: Peritoneal fluid was collected using blotting paper. Liver, spleen, intestines, kidneys, lungs and heart were also excised and analyzed for [^125l]-albumin accumulation. Data was expressed as percentage of radiolabeled albumin recovered from each tissue with the total amount recovered from each animal. This form of analysis minimizes differences induced by variability in injection technique.
(§1) 1400 W was dissolved at a concentration of 1M in sterile PBS and administered via continuous subcutaneous infusion by Alzet mini osmotic pumps (Model 2001, Alzet Corporation, Cupertino, Calif.). Each pump contained 225 μL of solution that released a constant volume of 28 μL/day, resulting in a calculated delivery of 7 mg 1400 W/mouse/day.
(§2) MLA was dissolved in sterile ultra-filtered water at a concentration of 3.38M and loaded into pre-equilibrated osmotic pumps containing 225 μL of solution that released a constant volume of 28 μL/day, resulting in a calculated delivery of 18.5 mg MLA/mouse/day.

[2] = tested on: C57BL/6 mice; test: Systolic blood pressure by tail cuff method in IL-2 treated mice; format: in vivo
Protocol: Systolic blood pressure was measured via tail cuff method (Stoelting, Wood Dell, Ill.) using PowerLab digital signal transducer (AD instruments, Mountain View, Calif.). […] The lower limit of blood pressure detectable using this instrumentation is about 40 mm of Hg. This value of blood pressure was assigned whenever no detectable value could be obtained.
as §1, §2

[3] = tested on: peritoneal exudate cells; test: Inhibition of NO synthesis in IFNγ/LPS-stimulated peritoneal exudate cells (Griess reaction); format: cell-based; conditions: 48 hours; highest concentration MLA 1 mM, Polymethylarginine 400 uM
Protocol: First, peritoneal exudate cells were elicited by thioglycolate. These cells were then harvested and cultured in 96 well microtiter wells at 1×10^6 overnight in DMEM media with 5% FCS. Media was then replaced with DMEM containing 50 Units/ml of IFNγ and 100 ng/ml bacterial lipopolysaccharide. Serial dilutions of either N^G-monomethy-L-larginine (MLA) or Polymethylarginine (poly-MLA 7-mer) were then added to experimental wells. The highest concentration of MLA was 1 mM and of Polymethylarginine was 400 uM.
The cultures were then incubated for 48 hours and culture supernatants were assayed for the NO metabolite nitrate using the Griess reaction after nitrate reduction.

[4] = Retention of modified NOS inhibitors in the vasculature; conditions: due to their size
[5] = iNOS−/− mice, given together with IL-2

SMILES: CC(=N)NCc1cccc(CN)c1 [1400 W]
Effect on IL-2 induced radio-albumin accumulation in peritoneal fluid / VLS [1]: did not inhibit | Systolic blood pressure ([2]; mice treated with IL-2 plus 1400 W, continuous s.c. infusion 7 mg/mouse/day): 45±7 mm of Hg

SMILES: [Cl-].[Cl-].[Mn+2].c1cc2nc(c1)CN[C@@H]1CCCC[C@H]1NCCN[C@@H]1CCCC[C@H]1NC2 [M40403]
Effect on IL-2 induced radio-albumin accumulation in peritoneal fluid / VLS [1]: did not reverse | Systolic blood pressure [2, 5]: 85±5 mm of Hg

SMILES: CNC(=N)NCCC[C@H](N)C(=O)O [MLA, N^G-monomethyl-L-arginine]
[125I] labeled albumin retention in peritoneal fluid ([1]; iNOS WT mice): 0.562±0.24% | [125I] labeled albumin retention in peritoneal fluid ([1]; iNOS−/− mice): 1.66±0.06% | Effect of serial dilutions on NO production [3]: blocked NO production | Systolic blood pressure [2, 5]: 80±10 mm of Hg

Retention in the vasculature [4]: retained in the vasculature
SMILES: CNC(=N)NCCC[C@H](NC(=O)[C@H](CCCNC(=N)NC)NC(=O)[C@H](CCCNC(=N)NC)NC(=O)[C@H](CCCNC(=N)NC)NC(=O)[C@H](CCCNC(=N)NC)NC(=O)[C@H](CCCNC(=N)NC)NC(=O)[C@@H](N)CCCNC(=N)NC)C(=O)O [poly-MLA, (N^G-mono-methyl-L-arginine)^7]
